± gives the expanded uncertainty stated by the source.
Assay: Molar enthalpy of transition or fusion
Conditions: Crystal; DSC

c1ccc2c(c1)OP1(=NP3(=NP4(=N1)Oc1ccccc1O4)Oc1ccccc1O3)O2 [tris(o-phenylenedioxy)cyclotriphosphazene]
Molar enthalpy of transition or fusion: 4.67 ± 0.143 kcal/mol

From the NIST ThermoML archive (doi:10.1021/je200252c)
